In brackets after ≈: the same amount, converted by molar mass.

The conditions of the series: buffer; pH 7.4; 200.0 µM.
By solubility (kinetic) is commonly meant solubility judged after dilution from a stock solution rather than from solid. With `COc1ccccc1NC(=O)c1ccc2nsnc2c1`, the kinetic solubility is 39.6 µg/mL (≈ 139 µM). The figure for `O=C(/C=C/c1ccco1)Nc1cccnc1Cl` is 33 µg/mL (≈ 133 µM). Turning to `Cc1nc2ccccc2c(=O)n1NC(=O)c1c(F)cccc1F`, the solubility (kinetic) is > 47.3 µg/mL. Take `CC1=CC(C)(C)N(C(=O)Nc2ccccc2)c2ccccc21`: the solubility (kinetic) was 7.8 µg/mL (≈ 26.7 µM). Take `C=CCn1c(NC(=O)c2ccccc2)nc2ccccc21`: the kinetic solubility came out at 0.8 µg/mL (≈ 2.88 µM).

With `COC(=O)c1[nH]c2ccccc2c1NC(=O)C(C)N1CC(C)OC(C)C1` (stereo not drawn), the kinetic solubility was > 53.9 µg/mL. Then `Cc1cccc(Nc2nc(N)c([N+](=O)[O-])c(NCc3ccccc3)n2)c1`, with 0.7 µg/mL (≈ 2 µM); and `COC(=O)c1c(C)oc(C)c1S(=O)(=O)NCc1ccco1`, with > 47 µg/mL. Then `CC(C)CCNC(=O)C1c2ccccc2Oc2ccccc21`, with < 0.6 µg/mL. The figure for `Cc1cc(C(=O)Nc2cc(S(C)(=O)=O)ccc2Cl)c(C)o1` is 11.8 µg/mL (≈ 36 µM); for `COc1cccc(CNC(=O)CCNC(=O)c2ccccc2OC)c1` it is > 51.4 µg/mL; for `CCOc1ccc(Nc2cc(=O)[nH]c(=O)[nH]2)cc1` it is 7.6 µg/mL (≈ 30.7 µM). Consider `COC(=O)c1cc(OC)c(OC)cc1NC(=O)c1csc(C)c1`, for which the solubility (kinetic) is < 0.7 µg/mL.

`FC(F)(F)c1cc(N2CCNCC2)c2ccccc2n1` displayed a solubility (kinetic) of 41.6 µg/mL (≈ 148 µM).

`O=C(COC(=O)c1ccc(Cl)c(S(=O)(=O)N2CCCC2)c1)NCc1ccccc1` displayed a kinetic solubility of 26.1 µg/mL (≈ 59.7 µM). Then `COC(=O)c1ccc(NC(=O)c2cccc(C)c2)cc1`, with 5.4 µg/mL (≈ 20.1 µM); and `O=C(Nc1ccccn1)c1ccc(Cl)s1`, with 30.9 µg/mL (≈ 129 µM). `Cc1ccc(SCCC(=O)OC(C(=O)NC(N)=O)C(C)C)cc1` (stereo not drawn) returned a solubility (kinetic) of 7 µg/mL (≈ 20.7 µM). On to `Cc1cc(C)cc(OCc2ccc(C(=O)NC3CCOC3=O)o2)c1` (stereo not drawn), for which the solubility (kinetic) is > 49.4 µg/mL.

For `Cc1cccc(NC(=O)Nc2ccc(Br)cc2)n1`, the solubility (kinetic) was < 0.2 µg/mL. Turning to `COc1ccc(S(=O)(=O)Nc2cccnc2)cc1OC`, the solubility (kinetic) is > 44.1 µg/mL. Then `Cc1ccc(C(CC(=O)N2CCCCC2)c2ccccc2)c(O)c1C` (stereo not drawn), with 3.8 µg/mL (≈ 11.3 µM); and `COCC(C)n1c(C)cc(C(=O)COC(=O)c2cccn2C)c1C` (stereo not drawn), with > 49.9 µg/mL; and `CSc1ccccc1NC(=O)Nc1ccccc1Cl`, with 1.7 µg/mL (≈ 5.81 µM).

Compound `O=c1c2ccccc2nc(-c2ccco2)n1CCc1ccc(O)cc1` gave a kinetic solubility of 7.9 µg/mL (≈ 23.8 µM). The compound `O=C(Cc1ccc(Cl)cc1)OCC(=O)c1ccc[nH]1` displayed a solubility (kinetic) of 27.3 µg/mL (≈ 98.3 µM). The figure for `Cc1[nH]c2ccccc2c1CCNC(=O)c1c(N)no[n+]1[O-]` is 31.3 µg/mL (≈ 104 µM); for `CN(Cc1nc(-c2ccccc2)no1)C(=O)c1ccco1` it is > 42.5 µg/mL. As for `Cc1noc(C)c1C(=O)OC(C)C(=O)Nc1ccc2c(c1)OCO2` (stereo not drawn), the kinetic solubility was 11.8 µg/mL (≈ 35.5 µM). The figure for `C=CCn1c(O)c(C(C)=Nc2ccc(C(=O)O)cc2)c(=O)[nH]c1=O` is > 49.4 µg/mL; for `CCOC(=O)C1CCCN(C(=O)c2ccccc2NS(=O)(=O)c2ccc(F)cc2)C1` (stereo not drawn) it is > 65.2 µg/mL; for `NC(=O)C1CCN(C(=O)CCn2c(=O)oc3ccccc32)CC1` it is > 47.6 µg/mL. For `COc1cc(Cl)c(C)cc1NC(=O)CN1CCCCCC1`, the solubility (kinetic) was < 0.3 µg/mL. Consider `CCCNC(=O)c1oc2ccc3c(c2c1C)C=CC(C)(C)O3`, for which the kinetic solubility came to 14.2 µg/mL (≈ 47.4 µM).

Compound `O=[N+]([O-])c1ccccc1S(=O)(=O)Nc1cccc2cccnc12` displayed a solubility (kinetic) of 1.8 µg/mL (≈ 5.47 µM). The compound `O=C1c2ccccc2C(=O)N1CCc1ccccc1` had a solubility (kinetic) of 7.8 µg/mL (≈ 31 µM).

Consider `Nc1ccccc1N=Cc1ccc(-c2cccc(Cl)c2)o1`, for which the kinetic solubility was < 0.3 µg/mL. Then `Cc1cc(C)nc(SCC(=O)N/N=C/c2cccnc2)n1`, with > 45.2 µg/mL. As to `CC(=O)N1CCN(C(=O)CSc2ncnc3sc(C)c(C)c23)CC1`, the kinetic solubility is > 54.7 µg/mL. Turning to `Cc1nc(NC(=O)COC(=O)C2CC3CCCC(C2)C3=O)c(Cl)cc1Cl` (stereo not drawn), the kinetic solubility is > 59.9 µg/mL. Then `OCCCNc1nc(-c2ccccc2)nc2c1oc1ccccc12`, with 1.3 µg/mL (≈ 4.07 µM); and `COC(=O)c1c(C)[nH]c(C=Nc2ccc(OC)cc2)c1C`, with 30 µg/mL (≈ 105 µM); and `O=c1cc([O-])n(Cc2ccc(F)cc2)c(=O)[nH]1.[NH4+]`, with > 38 µg/mL. For the compound `CC(C)Oc1ccc(C(=O)Nc2ccc3c(c2)n(C)c(=O)n3C)cc1`, the solubility (kinetic) amounted to 13.5 µg/mL (≈ 39.8 µM).

Regarding `CCCCN(C(=O)COC(=O)c1ccc(C)s1)c1c(N)n(CCC)c(=O)[nH]c1=O`, the solubility (kinetic) was 17.9 µg/mL (≈ 42.4 µM). The figure for `CC1(C)C2CCC1(CS(=O)(=O)Nc1ccccc1)C(=O)C2` (stereo not drawn) is 42.8 µg/mL (≈ 139 µM); for `CC1CC1C(=O)OCC(=O)NC(=O)c1ccccc1` (stereo not drawn) it is > 39.2 µg/mL. Then `Cc1ccnc(NCc2ccc(Br)cc2)c1`, with 2.3 µg/mL (≈ 8.3 µM); and `Brc1cccc(C2Nc3cccc4cccc(c34)N2)c1`, with < 0.3 µg/mL. `COc1ccccc1NC(=S)N(Cc1cccnc1)Cc1ccco1` showed a solubility (kinetic) of 48.3 µg/mL (≈ 137 µM). The figure for `S=c1[nH]c(-c2cccs2)cn1-c1ccccc1` is 10.5 µg/mL (≈ 40.6 µM); for `CC(NC(=O)COC(=O)c1cc(=O)c2ccccc2o1)c1ccccc1` (stereo not drawn) it is > 52.7 µg/mL; for `COC(=O)[C@H](Cc1ccccc1)NC(=O)N1CCCCC1` it is > 43.6 µg/mL.

Turning to `CN(C(=O)c1ccc2ccccc2c1)c1ccccn1`, the kinetic solubility is > 39.3 µg/mL. `CNC(=O)CC1C(=O)N(C)C(=S)N1NC(=O)c1ccccc1` (stereo not drawn): the solubility (kinetic) was > 48.1 µg/mL. For `C#CCSc1nc2sc3c(c2c(=O)n1C)CCC3`, the kinetic solubility was < 0.3 µg/mL.

For `O=C(OCC(=O)N1CCCC1)c1cnc(Cl)c(Cl)c1`, the kinetic solubility is > 45.5 µg/mL. The figure for `COc1ccc2c(c1)nc(SCC(O)c1ccccc1)n2C` (stereo not drawn) is 41.3 µg/mL (≈ 131 µM); for `Nc1nc(Nc2ccccc2)sc1C(=O)c1ccccc1` it is 4.3 µg/mL (≈ 14.6 µM); for `COCCN1Cc2cc(=O)n3c([nH]c4ccccc43)c2C1=N` it is 5.1 µg/mL (≈ 17.2 µM). Then `O=C(Nc1csc(Cl)c1)c1ccccc1`, with 6.2 µg/mL (≈ 26.1 µM); and `O=C(CSc1ccccc1)NCCCc1ccccc1`, with > 42.8 µg/mL; and `O=C(COC(=O)c1ccc2ccccc2c1O)Nc1ccccc1`, with 2.3 µg/mL (≈ 7.16 µM). The figure for `Cc1cccc(C(=O)O/N=C(/c2ccccc2)c2ccncc2)c1` is < 0.3 µg/mL; for `CC1CCN(C(=O)CSc2nc3ncccc3[nH]2)CC1` it is > 43.6 µg/mL. Take `CC(Cc1ccccc1)NC(=O)c1cc2ccccc2o1` (stereo not drawn): the solubility (kinetic) came out at 30.5 µg/mL (≈ 109 µM). The figure for `CCOC(=O)c1ccc(NC(=O)NCCc2cnc[nH]2)cc1` is > 45.3 µg/mL.

Take `CCOc1cc(OCC)cc(C(=O)NCCCN2CCOCC2)c1`: the kinetic solubility turned out to be 48.4 µg/mL (≈ 144 µM). `Cc1c(Cl)cccc1NC(=O)CSC(N)=O` gave a kinetic solubility of 15.6 µg/mL (≈ 60.3 µM). Consider `O/N=C/c1cc2ccccc2n1Cc1ccccc1F`, for which the solubility (kinetic) is 0.5 µg/mL (≈ 1.86 µM). Take `CC(=O)NCCC(=O)N1CCCC(N(C)CCc2ccccc2)C1` (stereo not drawn): the solubility (kinetic) is > 49.7 µg/mL.

The compound `COc1ccc(CNC(=O)c2cc(S(=O)(=O)N3CCCCC3)ccc2Cl)cc1OC` returned a kinetic solubility of 3.1 µg/mL (≈ 6.84 µM).

On to `CCCc1nc2ccccc2c(C(=O)OCC(=O)NC2CC2)c1CC`, for which the kinetic solubility was > 51.1 µg/mL.

For the compound `OCC(CO)(CO)NC(=S)Nc1cc(Cl)cc(Cl)c1`, the kinetic solubility turned out to be 46.7 µg/mL (≈ 144 µM). With `Br.COc1cccc(C(=O)CSc2nccn2C)c1`, the solubility (kinetic) is > 51.5 µg/mL. On to `CCc1ccc(OCCCC(=O)Nc2cccc(C(=O)O)c2)cc1`, for which the solubility (kinetic) was > 49.1 µg/mL. Then `Cc1cc(C)nc(NS(=O)(=O)c2ccc(CC(C)C)cc2)c1`, with 28.9 µg/mL (≈ 90.8 µM); and `CC(C(=O)Nc1cccc([N+](=O)[O-])c1)N1C(=O)NC2(CCCC2)C1=O` (stereo not drawn), with > 52 µg/mL; and `CC(=O)SC1CC(=O)N(c2ccc(C(C)(C)C)cc2)C1=O` (stereo not drawn), with 5.7 µg/mL (≈ 18.7 µM).

Consider `O=C(Cc1ccccc1)Nc1ccc(NC(=O)c2ccccc2)c(Cl)c1`, for which the solubility (kinetic) was determined as 2.3 µg/mL (≈ 6.3 µM). The figure for `Cl.N#C/C=C/N1CCN(Cc2ccc3c(c2)OCO3)CC1` is > 46.2 µg/mL; for `CN(Cc1ccccc1)c1c([N+](=O)[O-])c(=O)n(C)c2ccccc12` it is 2.7 µg/mL (≈ 8.35 µM). Then `Fc1cccc(CN2CCN(c3ccc(Cl)cc3)CC2)c1`, with 4.1 µg/mL (≈ 13.5 µM); and `Cc1cc(Cl)c2cc3ccccc3cc2n1`, with 0.9 µg/mL (≈ 3.95 µM); and `Cc1onc(-c2c(Cl)cccc2Cl)c1C(=O)c1ccccc1`, with 5.1 µg/mL (≈ 15.4 µM).

Take `O=C(CCCO)NC1Cc2ccccc2C1`: the solubility (kinetic) was determined as 31.7 µg/mL (≈ 145 µM).

Turning to `Cc1coc2cc3oc(=O)c(CCC(=O)NC4CC4)c(C)c3cc12`, the kinetic solubility is 16.7 µg/mL (≈ 51.3 µM). Then `CCc1ccccc1NC(=O)CC(NCc1ccccc1)C(=O)O` (stereo not drawn), with > 49 µg/mL; and `O=C(COC(=O)c1cnccn1)Nc1cc(S(=O)(=O)N2CCOCC2)ccc1Cl`, with > 66.1 µg/mL; and `CC1CCCCN1S(=O)(=O)Cc1ccccc1Cl` (stereo not drawn), with > 43.2 µg/mL.

In the case of `Cc1ccc(Cl)cc1NC(=O)C1C2CCC(O2)C1C(=O)O` (stereo not drawn), the kinetic solubility was > 46.5 µg/mL. With `O=C(c1cc2cc(F)ccc2[nH]1)N1CCc2ccccc21`, the kinetic solubility is 1.4 µg/mL (≈ 4.99 µM). For `CCc1ccc(S(=O)(=O)Nc2nccs2)cc1`, the solubility (kinetic) was determined as 27.5 µg/mL (≈ 102 µM). Compound `O=C(CNC(=O)c1ccccc1)OCc1cccc(Br)c1` had a kinetic solubility of 46.4 µg/mL (≈ 133 µM). For `CC(C)(C)C1CCC(C(=O)Nc2cccnc2)CC1` (stereo not drawn), the solubility (kinetic) was 6.3 µg/mL (≈ 24.2 µM). In turn, `CCNc1ccc(C(=O)OCC(=O)N2CCCC2)cc1[N+](=O)[O-]` yielded a kinetic solubility of 43.9 µg/mL (≈ 137 µM). Then `COCCNC(=O)c1ccc2c(c1)CCN2S(C)(=O)=O`, with 44.7 µg/mL (≈ 150 µM); and `CN(c1ccccc1)c1nc(N)c([N+](=O)[O-])c(N2CCCCC2)n1`, with 13 µg/mL (≈ 39.6 µM); and `O=C(Nc1ccccc1)Nc1ccc2ncoc2c1`, with 27.5 µg/mL (≈ 109 µM). Take `O=C(CCC1CCCCC1)NC1CCCCC1`: the solubility (kinetic) was 16.6 µg/mL (≈ 69.9 µM). The figure for `CC(C)(C)c1ccc(/C=C/C(=O)NC2CCS(=O)(=O)C2)cc1` (stereo not drawn) is > 48.2 µg/mL; for `NC(=O)C1CCN(C(=O)c2cccc3ccccc23)CC1` it is > 42.4 µg/mL; for `Cc1ccc2[nH]c(=O)c(CN(C(=O)c3cccc([N+](=O)[O-])c3)C(C)C)cc2c1` it is 2.6 µg/mL (≈ 6.85 µM).
